Several values for one entry are separate records, joined by “and”; a condition that tells them apart may be missing. Equal values may be shown once. Numbers after ± are expanded uncertainties.
Assay: mn = molality of the nth substance listed, in mol/kg
Details: 101 kPa, Liquid, Sing-around technique in a fixed-path interferometer

CC(C)(C)CO [2,2-dimethyl-1-propanol] + O
speed of sound (278.15 K, m1 = 0.0485): 1430.2 ± 0.72 m/s | speed of sound (278.15 K, m1 = 0.09995): 1434.4 ± 0.72 m/s | speed of sound (278.15 K, m1 = 0.1472): 1438.2 ± 0.73 m/s and 1438.1 ± 0.73 m/s | speed of sound (278.15 K, m1 = 0.1999): 1442.3 ± 0.73 m/s | speed of sound (283.15 K, m1 = 0.0485): 1452.5 ± 0.73 m/s | speed of sound (283.15 K, m1 = 0.09995): 1457.9 ± 0.73 m/s and 1458 ± 0.73 m/s | speed of sound (283.15 K, m1 = 0.1472): 1463 ± 0.73 m/s and 1462.9 ± 0.73 m/s | speed of sound (283.15 K, m1 = 0.1999): 1468.5 ± 0.74 m/s and 1468.4 ± 0.74 m/s | speed of sound (288.15 K, m1 = 0.0485): 1470.7 ± 0.74 m/s | speed of sound (288.15 K, m1 = 0.09995): 1475.7 ± 0.74 m/s | speed of sound (288.15 K, m1 = 0.1472): 1480.2 ± 0.74 m/s | speed of sound (288.15 K, m1 = 0.1999): 1485.2 ± 0.74 m/s | speed of sound (293.15 K, m1 = 0.0485): 1486.8 ± 0.74 m/s | speed of sound (293.15 K, m1 = 0.09995): 1491.3 ± 0.74 m/s | speed of sound (293.15 K, m1 = 0.1472): 1495.5 ± 0.74 m/s | speed of sound (293.15 K, m1 = 0.1999): 1500 ± 0.75 m/s | speed of sound (298.15 K, m1 = 0.0485): 1500.7 ± 0.75 m/s | speed of sound (298.15 K, m1 = 0.09995): 1504.9 ± 0.75 m/s | speed of sound (298.15 K, m1 = 0.1472): 1508.7 ± 0.75 m/s | speed of sound (298.15 K, m1 = 0.1999): 1512.8 ± 0.75 m/s | speed of sound (308.15 K, m1 = 0.0485): 1523.3 ± 0.75 m/s and 1523.1 ± 0.75 m/s | speed of sound (308.15 K, m1 = 0.09995): 1526.6 ± 0.75 m/s and 1526.4 ± 0.75 m/s | speed of sound (308.15 K, m1 = 0.1472): 1529.7 ± 0.76 m/s and 1529.5 ± 0.76 m/s | speed of sound (308.15 K, m1 = 0.1999): 1532.9 ± 0.76 m/s | speed of sound (318.15 K, m1 = 0.0485): 1539.1 ± 0.76 m/s and 1539.2 ± 0.76 m/s | speed of sound (318.15 K, m1 = 0.09995): 1541.8 ± 0.76 m/s | speed of sound (318.15 K, m1 = 0.1472): 1544.3 ± 0.76 m/s and 1544.2 ± 0.76 m/s | speed of sound (318.15 K, m1 = 0.1999): 1546.9 ± 0.76 m/s

From the NIST ThermoML archive (doi:10.1021/je300175w)
